For data set [1], the target named is T1, endogenous glucagon receptor (Rattus norvegicus, UniProt P30082).
T1 construct: Agonistic activity of the test compounds on endogenous glucagon receptor; endogenous in cells; host or cells: primary rat hepatocytes
The experiment in a line: Agonistic activity on endogenous glucagon receptor (glycogen synthesis rate in primary rat hepatocytes). The class given is cell-based. The following applies: inhibition of glycogen synthesis rate, 3 hours, read-out: EC50 GLP-1R Rat hepat. The method in brief:
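Primary rat hepatocytes (40,000 cells/well, cultured 24 h) incubated 3 h with compound in KRBH buffer with 0.1% BSA, 22.5 mM glucose and D-[U14C]glucose. 14C incorporated into precipitated glycogen counted, background-subtracted and expressed as % of 0.1% DMSO vehicle (100% CTL). pEC50 from cpm versus log concentration; agonism lowers glycogen synthesis.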

The nature of data set [2]: Pharmacokinetic parameters after subcutaneous and intravenous administration to mice. The class given is in vivo. Conditions: male, mouse, plasma, 20 nmol/kg, C57Bl/6J mice; for half-life: read-out: Terminal half life (converted); for MRT: read-out: Mean Residence Time. The method in brief: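 Male C57Bl/6J mice (8–11 weeks) given GLP-1-glucagon dual agonists at 20 nmol/kg s.c. (neck) or i.v. (tail vein), dosing solution 4 μM in PBS with 25 mM phosphate, pH 7.4. Plasma sampled to 24 h, measured by LC-MS/MS; parameters by non-compartmental analysis.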

A short description of data set [3]: Sub-chronic effects on adiposity/body weight in diet-induced obese mice. The class given is in vivo, C57BL/6J mice. Conditions: DIO mice, 5 nmol/kg s.c. twice daily for 31 days. How it is done:
Male C57BL/6J mice (Taconic A/S, Denmark) at an age of 5 weeks were maintained on a 12:12 hour light-dark cycle on a high-fat diet (60% of total energy from fat, D12492, Research Diet Inc.) for 20 weeks. All mice (housed 2 per cage) were then mock-treated for a week to acclimatize the animals to handling and injections. Subsequently, the mice were stratified according to body fat mass (measured by magnetic resonance technique) and body weight into 9 groups (n=9-12). Animals were thereafter treated twice daily with subcutaneous injections (5 ml/kg) of vehicle (25 mM phosphate buffer, pH 7.4) or test substances (5 nmol/kg per administration, in equivalent amount of vehicle) for a total of 31 days. The daily injections were given at the start and at the end of the light phase. Body weight, food and water intake were determined daily throughout the study. The data are presented in Table 6 as mean body weight change±S.E.M. S.E.M. is defined as standard error of the mean and was calculated using the formula: S.E.M.=SD/square root (n), where SD is the standard deviation and n the number of observations (in this case animals/group).
Statistical analyses were performed using Graph Pad Prism version 5. The measured parameters were compared using one-way ANOVA followed by Dunnett's multiple comparison test. Differences were considered statistically significant at p<0.05.

Like-named read-outs stand apart in the source and are kept apart here. *1 amine or outer side, *2 acyl side, *3 side chain or, on linkers, in order; H or OH if unused. Where a SMILES comes first, the peptide text is derived from it. Side-chain parts run from the residue outwards. [ ]: non-standard residue; d: D form. The star is where a group is joined. γGlu = O=C(O)[C@H](CCC(=O)[*:2])N[*:1]; Palmitoyl = CCCCCCCCCCCCCCCC(=O)*; Aib = CC(C)(N)C(=O)O

T1 sequence (P30082 27-485): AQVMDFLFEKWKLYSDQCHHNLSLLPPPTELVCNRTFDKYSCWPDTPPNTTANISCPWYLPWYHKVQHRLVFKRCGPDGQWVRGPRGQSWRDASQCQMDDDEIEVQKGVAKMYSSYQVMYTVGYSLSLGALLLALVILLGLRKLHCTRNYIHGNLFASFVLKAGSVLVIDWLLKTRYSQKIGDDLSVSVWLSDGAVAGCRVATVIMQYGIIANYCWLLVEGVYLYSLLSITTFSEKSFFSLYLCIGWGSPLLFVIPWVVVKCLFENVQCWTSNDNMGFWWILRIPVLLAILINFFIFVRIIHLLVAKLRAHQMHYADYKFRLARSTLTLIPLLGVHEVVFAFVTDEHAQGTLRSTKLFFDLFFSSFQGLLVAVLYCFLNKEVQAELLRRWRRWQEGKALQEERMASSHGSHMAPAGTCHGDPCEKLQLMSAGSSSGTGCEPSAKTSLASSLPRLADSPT

Turning to `CCCCCCCCCCCCCCCC(=O)N[C@@H](CCC(=O)NCCCC[C@H](NC(=O)[C@H](CO)NC(=O)[C@H](CC(=O)O)NC(=O)[C@H](CC(C)C)NC(=O)[C@H](Cc1ccc(O)cc1)NC(=O)[C@H](CCCCN)NC(=O)[C@H](CO)NC(=O)[C@H](Cc1ccc(O)cc1)NC(=O)[C@H](CC(=O)O)NC(=O)[C@H](CO)NC(=O)[C@@H](NC(=O)[C@H](Cc1ccccc1)NC(=O)[C@@H](NC(=O)CNC(=O)[C@H](CCC(N)=O)NC(=O)[C@H](CO)NC(=O)[C@@H](N)Cc1c[nH]cn1)[C@@H](C)O)[C@@H](C)O)C(=O)N[C@@H](C)C(=O)N[C@@H](C)C(=O)N[C@@H](Cc1c[nH]cn1)C(=O)N[C@@H](CC(=O)O)C(=O)N[C@@H](Cc1ccccc1)C(=O)N[C@H](C(=O)N[C@@H](CCC(=O)O)C(=O)N[C@@H](Cc1c[nH]c2ccccc12)C(=O)N[C@@H](CC(C)C)C(=O)N[C@@H](CC(C)C)C(=O)N[C@@H](CO)C(=O)N[C@@H](C)C(=O)O)C(C)C)C(=O)O` [Compound 2, H-HSQGTFTSDYSKYLDS-K(Hexadecanoyl-isoGlu)-AAHDFVEWLLSA-OH] (H-HSQGTFTSDYSKYLDSK([γGlu-Palmitoyl])AAHDFVEWLLSA-OH), the EC50 in data set [1] was determined as 0.43 nM. Further, in data set [2] (IV), the clearance is 0.185 mL/min/kg and the half-life is 5 h. Also, in data set [2] (SC), the Tmax was 4 h, the bioavailability was 59%, the MRT amounted to 11.2 h and the half-life was 5.1 h. For the same compound, the “Mean body weight change” value in data set [3] is listed as −5.1%.
In the case of `CCCCCCCCCCCCCCCC(=O)N[C@@H](CCC(=O)NCCCC[C@H](NC(=O)[C@H](CO)NC(=O)[C@H](CC(=O)O)NC(=O)[C@H](CC(C)C)NC(=O)[C@H](Cc1ccc(O)cc1)NC(=O)[C@H](CCCCN)NC(=O)[C@H](CO)NC(=O)[C@H](Cc1ccc(O)cc1)NC(=O)[C@H](CC(=O)O)NC(=O)[C@H](CO)NC(=O)[C@@H](NC(=O)[C@H](Cc1ccccc1)NC(=O)[C@@H](NC(=O)CNC(=O)[C@H](CCC(N)=O)NC(=O)C(C)(C)NC(=O)[C@@H](N)Cc1c[nH]cn1)[C@@H](C)O)[C@@H](C)O)C(=O)N[C@@H](C)C(=O)N[C@@H](C)C(=O)N[C@@H](CCC(=O)O)C(=O)N[C@@H](CC(=O)O)C(=O)N[C@@H](Cc1ccccc1)C(=O)N[C@H](C(=O)N[C@@H](CCC(=O)O)C(=O)N[C@@H](Cc1c[nH]c2ccccc12)C(=O)N[C@@H](CC(C)C)C(=O)N[C@@H](CCC(=O)O)C(=O)N[C@@H](CO)C(=O)N[C@@H](C)C(N)=O)C(C)C)C(=O)O` [Compound 16, H-H-Aib-QGTFTSDYSKYLDS-K(Hexadecanoyl-isoGlu)-AAEDFVEWLESA-NH2] (H-H[Aib]QGTFTSDYSKYLDSK([γGlu-Palmitoyl])AAEDFVEWLESA-NH2), in data set [1], the EC50 was 1.85 nM. In data set [2] (IV), the clearance was 0.312 mL/min/kg and the half-life is 4.8 h. Moreover, in data set [2] (SC), the Tmax was found to be 2 h, the bioavailability stood at 80%, the MRT came out at 7.5 h and the half-life was 5 h. The “Mean body weight change” value in data set [3] is listed as −12.2%.
As to `CCCCCCCCCCCCCCCC(=O)N[C@@H](CCC(=O)NCCCC[C@H](NC(=O)[C@H](CCC(=O)O)NC(=O)[C@H](CC(=O)O)NC(=O)[C@H](CC(C)C)NC(=O)[C@H](Cc1ccc(O)cc1)NC(=O)[C@H](CCCCN)NC(=O)[C@H](CO)NC(=O)[C@H](Cc1ccc(O)cc1)NC(=O)[C@H](CC(=O)O)NC(=O)[C@H](CO)NC(=O)[C@@H](NC(=O)[C@H](Cc1ccccc1)NC(=O)[C@@H](NC(=O)CNC(=O)[C@H](CCC(N)=O)NC(=O)C(C)(C)NC(=O)[C@@H](N)Cc1c[nH]cn1)[C@@H](C)O)[C@@H](C)O)C(=O)N[C@@H](CCCNC(=N)N)C(=O)N[C@@H](C)C(=O)N[C@@H](CCCCN)C(=O)N[C@@H](CC(=O)O)C(=O)N[C@@H](Cc1ccccc1)C(=O)N[C@H](C(=O)N[C@@H](CCC(=O)O)C(=O)N[C@@H](Cc1c[nH]c2ccccc12)C(=O)N[C@@H](CC(C)C)C(=O)N[C@@H](CC(C)C)C(=O)N[C@@H](CO)C(=O)N[C@@H](C)C(=O)O)[C@@H](C)CC)C(=O)O` [Compound 14, H-H-Aib-QGTFTSDYSKYLDE-K(Hexadecanoyl-isoGlu)-RAKDFIEWLLSA-OH] (H-H[Aib]QGTFTSDYSKYLDEK([γGlu-Palmitoyl])RAKDFIEWLLSA-OH), in data set [1], the EC50 is 0.1 nM. In data set [2] (IV), the clearance is 0.225 mL/min/kg and the half-life is 6.2 h. For the same compound, in data set [2] (SC), the Tmax worked out at 4 h, the bioavailability came to 64%, the MRT was found to be 12.2 h and the half-life is 6.1 h. In addition, the “Mean body weight change” value in data set [3] is −9.5%.
Turning to `CCCCCCCCCCCCCCCC(=O)N[C@@H](CCC(=O)NCCCC[C@H](NC(=O)[C@H](CCC(=O)O)NC(=O)[C@H](CC(=O)O)NC(=O)[C@H](CC(C)C)NC(=O)[C@H](Cc1ccc(O)cc1)NC(=O)[C@H](CCCCN)NC(=O)[C@H](CO)NC(=O)[C@H](Cc1ccc(O)cc1)NC(=O)[C@H](CC(=O)O)NC(=O)[C@H](CO)NC(=O)[C@@H](NC(=O)[C@H](Cc1ccccc1)NC(=O)[C@@H](NC(=O)CNC(=O)[C@H](CCC(N)=O)NC(=O)C(C)(C)NC(=O)[C@@H](N)Cc1c[nH]cn1)[C@@H](C)O)[C@@H](C)O)C(=O)N[C@@H](C)C(=O)N[C@@H](C)C(=O)N[C@@H](CCCCN)C(=O)N[C@@H](CC(=O)O)C(=O)N[C@@H](Cc1ccccc1)C(=O)N[C@H](C(=O)N[C@@H](CCC(=O)O)C(=O)N[C@@H](Cc1c[nH]c2ccccc12)C(=O)N[C@@H](CC(C)C)C(=O)N[C@@H](CCC(=O)O)C(=O)N[C@@H](CO)C(=O)N[C@@H](C)C(N)=O)[C@@H](C)CC)C(=O)O` [Compound 15, H-H-Aib-QGTFTSDYSKYLDE-K(Hexadecanoyl-isoGlu)-AAKDFIEWLESA-NH2], in data set [1], the concentration giving a half-maximal response (EC50) stood at 0.17 nM. Moreover, in data set [2] (IV), the clearance was 0.128 mL/min/kg and the half-life was 6 h. In addition, in data set [2] (SC), the Tmax amounted to 6 h, the bioavailability amounted to 97%, the MRT worked out at 17.4 h and the half-life was 10.5 h. For the same compound, the “Mean body weight change” value in data set [3] is given as −10.9%.

The values are drawn from patent US10253081B2, “Glucagon analogues” (Zealand Pharma A/S, priority 2012, dated 2019).
